Experimental data published in ChEMBL document CHEMBL1201862, “PubChem BioAssay data set” (2004).
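The compound was tested at five concentrations on cells cultured in 96-well plates, with a 48-hour exposure period. GI50: concentration for 50% inhibition of growth.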 The source made the active and inactive calls. Rule as the data show it: active = GI50 up to about 1.1 µM and inactive = higher.

What was measured:
Test in all cases: growth of human tumour cells (NCI), 48 h
786-0 = system: 786-0
ACHN = system: ACHN
CAKI-1 = system: CAKI-1
DU-145 = system: DU-145
EKVX = system: EKVX
HCT-15 = system: HCT-15
HL-60 = system: HL-60
Hs-578T = system: Hs-578T
K562 = system: K562
KM12 = system: KM12
MCF7 = system: MCF7
MDA-N = system: MDA-N
MOLT-4 = system: MOLT-4
Malme-3M = system: Malme-3M
OVCAR-3 = system: OVCAR-3
PC-3 = system: PC-3
SK-MEL-5 = system: SK-MEL-5
SK-OV-3 = system: SK-OV-3
T47D = system: T47D
UACC-62 = system: UACC-62

SMILES	GI50 (786-0)	GI50 (ACHN)	GI50 (CAKI-1)	GI50 (DU-145)	GI50 (EKVX)	GI50 (HCT-15) [µM]	GI50 (HL-60)	GI50 (Hs-578T)	GI50 (K562)	GI50 (KM12)	GI50 (MCF7)	GI50 (MDA-N)	GI50 (MOLT-4)	GI50 (Malme-3M)	GI50 (OVCAR-3)	GI50 (PC-3)	GI50 (SK-MEL-5)	GI50 (SK-OV-3)	GI50 (T47D)	GI50 (UACC-62)
CC1=Nc2c(O)nc(S)nc2NC(c2c(Cl)cccc2Cl)C1 (configuration not stated)	0.902 µM (active)	4.86 µM (inactive)	5.51 µM (inactive)	1.95 µM (inactive)	7.18 µM (inactive)	3.05	0.552 µM (active)	0.589 µM (active)	0.649 µM (active)	1.75 µM (inactive)	1.13 µM (inactive)	0.552 µM (active)	0.646 µM (active)	6.11 µM (inactive)	1.58 µM (inactive)	1.17 µM (inactive)	3.58 µM (inactive)	7.28 µM (inactive)	1.48 µM (inactive)	1.78 µM (inactive)
Cc1c2cccc-2ccc2c1[nH]c1ccccc12	2.81 µM (inactive)	1.77 µM (inactive)	6.31 µM (inactive)	4.55 µM (inactive)	1.45 µM (inactive)	2.58	3.1 µM (inactive)	2.34 µM (inactive)	2.94 µM (inactive)	2.34 µM (inactive)	3.06 µM (inactive)	1.97 µM (inactive)	3.57 µM (inactive)	1.89 µM (inactive)	2.47 µM (inactive)	1.76 µM (inactive)	1.79 µM (inactive)	3.23 µM (inactive)	2.54 µM (inactive)	1.91 µM (inactive)
COc1ccc2nc3cc([N+](=O)[O-])ccc3c(NNc3ccc(Cl)cc3)c2c1	17.9 µM (inactive)	32.9 µM (inactive)	0.16 µM (active)	38.9 µM (inactive)	26.2 µM (inactive)	45.5	23.1 µM (inactive)	29.9 µM (inactive)	14.8 µM (inactive)	26.1 µM (inactive)	11.6 µM (inactive)	31.6 µM (inactive)	26.1 µM (inactive)	43.2 µM (inactive)	2.39 µM (inactive)	24.8 µM (inactive)	14.7 µM (inactive)	80 µM (inactive)	32.5 µM (inactive)	2.44 µM (inactive)
COC(=O)CCN1CCN(CCO)CC1C (configuration not stated)	> 10 µM (inactive)	> 10 µM (inactive)	> 10 µM (inactive)	> 10 µM (inactive)	> 10 µM (inactive)	> 10	> 10 µM (inactive)	> 10 µM (inactive)	> 10 µM (inactive)	> 10 µM (inactive)	> 10 µM (inactive)	> 10 µM (inactive)	> 10 µM (inactive)	> 10 µM (inactive)	> 10 µM (inactive)	> 10 µM (inactive)	> 10 µM (inactive)	> 10 µM (inactive)	> 10 µM (inactive)	> 10 µM (inactive)
N=C(N)NCC[C@H](NC(=O)OCCCCCn1ccc(=O)[nH]c1=O)C(=O)O	> 100 µM (inactive)	> 100 µM (inactive)	> 100 µM (inactive)	> 100 µM (inactive)	> 100 µM (inactive)	> 100	> 100 µM (inactive)	> 100 µM (inactive)	> 100 µM (inactive)	> 100 µM (inactive)	> 100 µM (inactive)	> 100 µM (inactive)	> 100 µM (inactive)	> 100 µM (inactive)	> 100 µM (inactive)	> 100 µM (inactive)	> 100 µM (inactive)	> 100 µM (inactive)	> 100 µM (inactive)	> 100 µM (inactive)
O=c1cc(/N=N\c2ccc(Cl)cc2)[nH]c(=O)[nH]1	1.66 µM (inactive)	2.32 µM (inactive)	0.923 µM (active)	9.23 µM (inactive)	4.09 µM (inactive)	1.96	1.11 µM (active)	5.68 µM (inactive)	3.43 µM (inactive)	5.27 µM (inactive)	3.97 µM (inactive)	4.71 µM (inactive)	2.9 µM (inactive)	3.01 µM (inactive)	4.12 µM (inactive)	7.05 µM (inactive)	10.6 µM (inactive)	14.7 µM (inactive)	3.18 µM (inactive)	3.48 µM (inactive)
COc1cccc(N2C(=O)C3c4[nH]c5ccccc5c4C4CCCC4C3C2=O)c1 (configuration not stated)	2.14 µM (inactive)	5.93 µM (inactive)	7.16 µM (inactive)	> 10 µM (inactive)	> 10 µM (inactive)	> 10	> 10 µM (inactive)	3.61 µM (inactive)	> 10 µM (inactive)	> 10 µM (inactive)	> 10 µM (inactive)	> 10 µM (inactive)	> 10 µM (inactive)	2.78 µM (inactive)	2.36 µM (inactive)	9.4 µM (inactive)	> 10 µM (inactive)	6.64 µM (inactive)	> 10 µM (inactive)	> 10 µM (inactive)
CCCCCCCCCCCCCCCCCCOc1ccc(/C=C/C2=[N+](CCCl)CCO2)cc1	> 100 µM (inactive)	> 100 µM (inactive)	> 100 µM (inactive)	> 100 µM (inactive)	> 100 µM (inactive)	> 100	53.3 µM (inactive)	> 100 µM (inactive)	> 100 µM (inactive)	> 100 µM (inactive)	> 100 µM (inactive)	> 100 µM (inactive)	> 100 µM (inactive)	> 100 µM (inactive)	> 100 µM (inactive)	> 100 µM (inactive)	> 100 µM (inactive)	> 100 µM (inactive)	> 100 µM (inactive)	> 100 µM (inactive)
COc1ccc(C2C3=C(COC3=O)OC(C)(C)Oc3cc4c(cc32)OCO4)cc1 (configuration not stated)	39.4 µM (inactive)	40 µM (inactive)	24.1 µM (inactive)	32.5 µM (inactive)	35.5 µM (inactive)	23.7	12 µM (inactive)	27.4 µM (inactive)	5.13 µM (inactive)	8.81 µM (inactive)	> 64.4 µM (inactive)	2.96 µM (inactive)	23.3 µM (inactive)	17.7 µM (inactive)	36.6 µM (inactive)	15.1 µM (inactive)	20.4 µM (inactive)	50.1 µM (inactive)	26.3 µM (inactive)	25.5 µM (inactive)
O=c1c2c(no[n+]2[O-])c2ccccc2n1-c1ccccc1	2.89 µM (inactive)	11.4 µM (inactive)	2.65 µM (inactive)	20.4 µM (inactive)	12.6 µM (inactive)	2.94	2.12 µM (inactive)	18.6 µM (inactive)	2.74 µM (inactive)	13.9 µM (inactive)	4.57 µM (inactive)	3.4 µM (inactive)	3.03 µM (inactive)	5.7 µM (inactive)	12.8 µM (inactive)	14.3 µM (inactive)	11.1 µM (inactive)	14.6 µM (inactive)	12.9 µM (inactive)	4.05 µM (inactive)
CC12CC(c3ccccc3O1)C(C(=O)Nc1ccc(F)cc1)C(=O)N2 (configuration not stated)	> 100 µM (inactive)	> 100 µM (inactive)	> 100 µM (inactive)	> 100 µM (inactive)	45.2 µM (inactive)	> 100	29.6 µM (inactive)	> 100 µM (inactive)	47.9 µM (inactive)	> 100 µM (inactive)	> 100 µM (inactive)	> 100 µM (inactive)	21.1 µM (inactive)	> 100 µM (inactive)	> 100 µM (inactive)	> 100 µM (inactive)	32.5 µM (inactive)	> 100 µM (inactive)	33.5 µM (inactive)	71.6 µM (inactive)
COc1nc(C)nc2c1ncn2Cc1ccccc1	> 100 µM (inactive)	> 100 µM (inactive)	66.2 µM (inactive)	> 100 µM (inactive)	80.7 µM (inactive)	> 100	> 100 µM (inactive)	99.8 µM (inactive)	> 100 µM (inactive)	> 100 µM (inactive)	58.9 µM (inactive)	> 100 µM (inactive)		> 100 µM (inactive)	> 100 µM (inactive)	> 100 µM (inactive)	> 100 µM (inactive)	> 100 µM (inactive)	> 100 µM (inactive)	> 100 µM (inactive)
C=CCOC(=O)Cn1ccc(=O)[nH]c1=O	> 100 µM (inactive)	> 100 µM (inactive)	> 100 µM (inactive)	> 100 µM (inactive)	> 100 µM (inactive)	> 100	> 100 µM (inactive)	> 100 µM (inactive)	> 100 µM (inactive)	> 100 µM (inactive)	> 100 µM (inactive)	> 100 µM (inactive)	> 100 µM (inactive)	> 100 µM (inactive)		> 100 µM (inactive)	> 100 µM (inactive)	> 100 µM (inactive)	> 100 µM (inactive)	> 100 µM (inactive)
C[C@]12Cc3cnn(-c4ccc(F)cc4)c3NC1CC[C@@H]1C2CC[C@@]2(C)C1CC[C@@H]2O (some centres not stated)	2.68 µM (inactive)	2.31 µM (inactive)	15.5 µM (inactive)	5.42 µM (inactive)	4.75 µM (inactive)		1.61 µM (inactive)	3.1 µM (inactive)	2.94 µM (inactive)	4.95 µM (inactive)	4.32 µM (inactive)	10.2 µM (inactive)	2.5 µM (inactive)	11.5 µM (inactive)	12.4 µM (inactive)	10 µM (inactive)	2.65 µM (inactive)	11.7 µM (inactive)	2.65 µM (inactive)	11 µM (inactive)
